Test results reported in US7674787B2, “Conformationally constrained Smac mimetics and the uses thereof” (The Regents of the University of Michigan, priority 2004, dated 2010).
Where two headings read alike, the source gives them in different places. One block for each molecule: values may come before it. Where a SMILES comes first, the peptide text is derived from it. [ ]: non-standard residue; d: D form. The star is where a group is joined. 6FAM = O=C1OC2(c3ccc(O)cc3Oc3cc(O)ccc32)c2cc(C(=O)*)ccc21; Abu = CC[C@H](N)C(=O)O

Experiments:
[1] = system: MDA-231 cells; experiment: Apoptosis by Annexin V-FITC/propidium iodide in MDA-231 cells; assay type: cell-based, human; conditions: for cells undergoing apoptosis as compared to control cells: 42 hours
Protocol: Similar experiments were performed using the breast cancer cell line MDA-231. MDA-231 cells in 6-well plates were treated with SH-102 and CDDP, alone or in combination, for 42 hours. Cells were collected and stained with Annexin V-FITC and propidium iodide. The fluorescence of Annexin V-FITC and propidium iodide of individual cells was analyzed by flow cytometry. 25 μM and 50 μM CDDP induced about 25% and 42% of MDA-231 cells to undergo apoptosis as compared to control cells, respectively (FIG. 22). […] Combination of 25 and 50 μM CDDP and 10 μM SH-102 induced about 35% and 75% apoptosis over control cells, respectively (FIG. 22).

[2] = system: PC-3 cells; experiment: Apoptosis by Annexin V-FITC staining in PC-3 cells; assay type: cell-based, human; conditions: for potentiation of CDDP activity in inducing apoptosis: PC-3 cells or MDA-231 cells
From the text: SH-97, a peptido-mimetic in which the side chain of alanine has been replaced with an ethyl group and the isoleucine has been replaced with a diphenylmethyl group, was used to test the basic premise. Of note, SH-97 still has two natural amino acids (valine and proline) and one natural peptide bond. […] The experiment used PC-3 cells which express high levels of XIAP and cIAP-1/2 proteins and cisplatin (CDDP) as the chemotherapeutic drug. CDDP is a DNA damaging agent and can effectively induce apoptosis in PC-3 cells and is also a clinically used chemotherapeutic drug for prostate cancer.
PC-3 cells were treated with CDDP, Smac peptides and mimetics alone or in combination for 42 hours and apoptosis was analyzed by Annexin V-FITC staining. […] Combination of 25 μM CDDP and 10 μM or 25 μM SH-97 induced 29.3%±1.9% and 35.8%±0.4% apoptosis over control cells, respectively (FIG. 18A).
Similar experiments were performed with SH-102 (Table 5). PC-3 cells in 6-well plates were treated with SH-102 and CDDP, alone or in combination, for 42 hours. Cells were collected and stained with Annexin V-FITC and propidium iodide. The fluorescence of Annexin V-FITC and propidium iodide of individual cells was analyzed by flow cytometry. […] Combination of 25 μM CDDP and 10 μM SH-102 induced 32% apoptosis over control cells (FIG. 19).
The same experiment was performed using TAXOTERE (docetaxel), another cancer chemotherapeutic drug. PC-3 cells in 6-well plates were treated with SH-102 and TAXOTERE, alone or in combination, for 42 hours. Cells were collected and stained with Annexin V-FITC and propidium iodide. The fluorescence of Annexin V-FITC and propidium iodide of individual cells was analyzed by flow cytometry. […] Combination of 10 μM TAXOTERE and 10 μM SH-102 induced about 18% apoptosis over control cells (FIG. 21).

[3] = system: Jurkat-XIAP cells; experiment: Sub-G1 apoptosis in Jurkat cells overexpressing XIAP
[4] = system: Jurkat-Bir3 cells; experiment: Sub-G1 apoptosis in Jurkat cells expressing XIAP-Bir3
[5] = system: MDA-435, MDA-468, and T47D cells; experiment: Cell growth inhibition, WST-8, breast cancer cell lines; assay type: cell-based, human; conditions: 5 days
Protocol: To test the effect of Smac mimetics by themselves in inhibition of cell growth in human cancer cells, SH-102 was administered to three different breast cancer cell lines. MDA-435, MDA-468, and T47D cells were seeded in 96-well plates with increasing concentrations of SH-102, Smac8, or Smac8-C. The cells were then incubated at 37° C. with 5% CO2 for 5 days, followed by detection of cell viability with WST-8 (10% Dojindo solution in IMEM with 10% FCS). OD values at 450 nm with reference at 650 nm were read approximately 3 hours later. Untreated cells were used as 100% growth. […]. […] (FIGS. 26A-26C).

[6] = molecular target: XIAP BIR3 (Homo sapiens, UniProt P98170); experiment: biochemical
Chain of XIAP BIR3 (P98170 241-356): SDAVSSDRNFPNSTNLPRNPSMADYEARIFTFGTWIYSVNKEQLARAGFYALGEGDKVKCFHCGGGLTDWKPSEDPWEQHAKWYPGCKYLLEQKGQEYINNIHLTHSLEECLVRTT

[7] = system: BT-549, MDA-MB-231 (subclone 2LMP), MDA-MB-231 (ATCC) and PC-3 cells; experiment: Cell growth inhibition, WST-8, cancer cell lines; assay type: cell-based, human; conditions: for cell growth inhibition (in words): 5 days, WST-8, each of the cancer cell lines
Protocol: (§1) To test the effect of [6.3.0] Smac mimetics in inhibition of cell growth in human cancer cells, compounds were administered to several different cancer cell lines. BT-549, MDA-MB-231 (subclone 2LMP), and MDA-MB-231 (ATCC) human breast cancer cells and PC-3 human prostate cancer cells were seeded in 96-well plates with increasing concentrations of the compounds. To assay for the selectivity of the compounds for cancer cells, normal prostate epithelial cells were also tested. The cells were then incubated at 37° C. with 5% CO2 for 5 days, followed by detection of cell viability with WST-8. Untreated cells were used as 100% growth. The compounds tested were SH-109, SH-122 and SH-123 (Table 6).

[8] = system: MDA-MB-231 (subclone 2LMP) breast cancer cells; experiment: Cell growth inhibition in combination with TRAIL, WST-8; assay type: cell-based, human; conditions: 4 days
Protocol: To test the ability of SH-122 to enhance the cell growth inhibitory activity of TRAIL, MDA-MB-231 (subclone 2LMP) breast cancer cells were seeded in 96-well plates with various concentrations of TRAIL in the presence of increasing amounts of SH-122. The cells were then incubated at 37° C. with 5% CO2 for 4 days, followed by detection of cell viability with WST-8.

[9] = system: normal prostate epithelial cells; experiment: Cell growth inhibition, WST-8, normal cells; assay type: cell-based; conditions: 5 days
Protocol: as §1

[10] = molecular target: T1, human XIAP-BIR3 protein (residues 241-356) (Homo sapiens, UniProt P98170); experiment: Fluorescence polarization saturation binding of labeled Smac peptides
T1 construct: The human XIAP-BIR3 protein (residues 241-356) with a His tag
T1 sequence (P98170 241-356): as above
From the text: A quantitative in vitro binding assay using fluorescence polarization was developed.

[11] = system: Jurkat-Vec cells; experiment: Sub-G1 apoptosis in Jurkat cells with control vector; assay type: cell-based, human; conditions: 10 μM etoposide alone, 15 hours
Protocol: Data were analyzed to calculate the percentage of sub-G1 cells (apoptotic cells) using CellQuest software (Becton Dickinson).

[12] = molecular target: XIAP (Homo sapiens, UniProt P98170); conditions: background statement; cited from earlier work
Chain of XIAP (P98170 whole entry): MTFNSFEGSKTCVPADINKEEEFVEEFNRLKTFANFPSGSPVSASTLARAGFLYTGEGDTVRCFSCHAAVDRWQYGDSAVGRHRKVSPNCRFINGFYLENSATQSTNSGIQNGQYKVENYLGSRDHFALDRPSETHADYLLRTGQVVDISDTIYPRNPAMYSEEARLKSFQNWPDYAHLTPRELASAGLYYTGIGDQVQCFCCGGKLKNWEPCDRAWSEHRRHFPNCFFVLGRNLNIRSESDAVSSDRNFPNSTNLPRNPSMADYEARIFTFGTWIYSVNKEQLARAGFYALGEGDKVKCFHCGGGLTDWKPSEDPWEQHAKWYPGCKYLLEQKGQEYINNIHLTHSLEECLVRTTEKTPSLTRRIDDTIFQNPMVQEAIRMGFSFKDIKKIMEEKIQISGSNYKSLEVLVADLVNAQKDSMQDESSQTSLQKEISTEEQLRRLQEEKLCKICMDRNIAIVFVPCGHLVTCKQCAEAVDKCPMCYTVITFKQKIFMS

Molecule: [NH2][Pt]([NH2])([Cl])[Cl] [CDDP, cisplatin, reference compound]
- cells undergoing apoptosis as compared to control cells ([1]; 25 μM CDDP alone): about 25%
- cells undergoing apoptosis as compared to control cells ([1]; 50 μM CDDP alone): ~42%
- cells undergoing apoptosis as compared to control cells ([2]; 50 μM CDDP alone, 42 hours): ~25%

Molecule: CC[C@H](N)C(=O)N[C@H]1CCC[C@H]2CC[C@@H](C(=O)NC(c3ccccc3)c3ccccc3)N2C1=O [Compound 34]
- effectiveness in overcoming protective effect of XIAP ([3]; 10 μM SH-102 compared with 50 μM Smac8-C): at least as effective as 50 μM Smac8-C
- apoptosis (sub-G1) ([3]; 10 μM SH-102 in combination with etoposide, 15 hours): about 15%
- ability to sensitize cells to CDDP ([1]; 10 μM SH-102 compared with 100 μM pSmac8-C): as great as that of 100 μM pSmac8-C
- apoptosis over control cells ([1]; 25 μM CDDP + 10 μM SH-102, 42 hours): about 35%
- apoptosis over control cells ([1]; 50 μM CDDP + 10 μM SH-102, 42 hours): ~75%
- apoptosis ([4]; etoposide + 10 μM SH-102): about 25%
- apoptosis ([4]; etoposide + 20 μM SH-102): ~30%
- apoptosis over control cells ([2]; 10 μM TAXOTERE + 10 μM SH-102, 42 hours): about 18%
- apoptosis over control cells ([2]; 25 μM CDDP + 10 μM compound, 42 hours): 32%
- apoptosis compared to untreated cancer cells ([2]; compound alone up to 100 μM, 42 hours): did not induce significantly more apoptosis
- IC50 ([5]; Homo sapiens, 120 h, each of the three cell lines): 30000 to 70000 nM

Molecule: CCC[C@H](N)C(=O)N[C@H]1CC[C@H]2CC[C@@H](C(=O)NCc3ccccc3)N2C1=O [SH-93]
- Ki ([6]; Ki (μM), Table 5): > 100 µM
- effect of combination with CDDP on apoptosis ([1]; 25 and 50 μM CDDP + 25 μM SH-93, 42 hours): no significant effect
- potentiation of CDDP activity in inducing apoptosis [2]: unable to potentiate the activity of CDDP

Molecule: CC(=O)O[C@@]12CO[C@@H]1C[C@H](O)[C@@]1(C)C(=O)[C@H](O)C3=C(C)[C@@H](OC(=O)[C@H](O)[C@@H](NC(=O)OC(C)(C)C)c4ccccc4)C[C@@](O)([C@@H](OC(=O)c4ccccc4)[C@H]21)C3(C)C [TAXOTERE, docetaxel, reference compound]
- cells undergoing apoptosis as compared to control cells ([2]; 10 μM TAXOTERE alone, 42 hours): about 5%
- cells undergoing apoptosis as compared to control cells ([2]; 20 μM TAXOTERE alone, 42 hours): ~8%

Molecule: COc1cc([C@@H]2c3cc4c(cc3[C@@H](O[C@@H]3O[C@@H]5CO[C@@H](C)O[C@H]5[C@H](O)[C@H]3O)[C@H]3COC(=O)[C@H]23)OCO4)cc(OC)c1O [etoposide, reference compound]
- apoptotic cells (sub-G1) ([3]; 10 μM etoposide alone, 15 hours): about 10%
- apoptotic cells (sub-G1) [11]: about 50%
- apoptosis ([4]; 20 μM etoposide alone): about 18%

Molecule: AVPIAQKS [Smac-8, Smac peptide without a carrier peptide, negative control, reference compound]
- potentiation of CDDP activity in inducing apoptosis [2]: unable to potentiate the activity of CDDP
- cell growth inhibition (in words) ([5]; all three cell lines): essentially ineffective

B1: TRAIL: tumor necrosis factor-related apoptosis-inducing ligand (protein, UniProt P50591 1-281, looked up)
Tumor necrosis factor ligand …: MAMMEVQGGPSLGQTCVLIVIFTVLLQSLCVAVTYVYFTNELKQMQDKYSKSGIACFLKEDDSYWDPNDEESMNSPCWQVKWQLRQLVRKMILRTSEETISTVQEKQQNISPLVRERGPQRVAAHITGTRGRSNTLSSPNSKNEKALGRKINSWESSRSGHSFLSNLHLRNGELVIHEKGFYYIYSQTYFRFQEEIKENTKNDKQMVQYIYKYTSYPDPILLMKSARNSCWSKDAEYGLYSIYQGGIFELKENDRIFVSVTNEHLIDMDHEASFFGAFLVG
- cell growth inhibition (in words) ([8]; TRAIL by itself): inhibited the growth of the cells in a dose dependent fashion

B2: mature Smac protein: mature Smac protein, endogenous inhibitor of XIAP (protein, UniProt Q9NR28 22-239, looked up)
Diablo IAP-binding …: LCVPVVANFKKRCFSELIRPWHKTVTIGFGVTLCAVPIAQKSEPHSLSSEALMRRAVSLVTDSTSTFLSQTTYALIEAITEYTKAVYTLTSLYRQYTSLLGKMNSEEEDEVWQVIIGARAEMTSKHQEYLKLETTWMTAVGLSEMAAEAAYQTGADQASITARNHIQLVKLQVEEVHQLSRKAETKLAEAQIEELRQKTQEEGEERAESEQEAYLRED
- Kd [12]: 420 nM

Now from value to molecule, other results behind:

- Ki [6]: 0.028 µM
Molecule: CC[C@H](N)C(=O)N[C@H]1CCCC[C@H]2CC[C@@H](C(=O)NC(c3ccccc3)c3ccccc3)N2C1=O [SH-109]
- cell growth inhibition (in words) [7]: inhibited the cell growth

- decrease of the IC50 of TRAIL ([8]; 250 nM SH-122 with TRAIL): approximately ten-fold
- Ki [6]: 0.03 µM
Molecule: CC[C@H](NC)C(=O)N[C@H]1CCCC[C@H]2CC[C@@H](C(=O)NC(c3ccccc3)c3ccccc3)N2C1=O [SH-122]
- cell growth inhibition (in words) [9]: no cell growth inhibition effect
- cell growth inhibition (in words) [7]: inhibited the cell growth
- rank of potency in cell growth inhibition ([7]; among SH-109, SH-122, SH-123, each cell line): most potent

- Ki [6]: > 10 µM
Molecule: C[C@H](O)C(=O)N[C@H]1CCCC[C@H]2CC[C@@H](C(=O)NC(c3ccccc3)c3ccccc3)N2C1=O [SH-123]
- cell growth inhibition (in words) [7]: inhibited the cell growth

- ratio of the Kd values between labeled SM5F and S9F ([10]; SM5F versus S9F): 7.2 fold
- binding affinity higher than natural Smac peptide S9F ([10]; relative to S9F): about 10 times
Molecule: CC[C@H](N)C(=O)N[C@@H](CCCNC(=N)N)C(=O)N1CCC[C@H]1C(=O)N[C@@H](Cc1ccccc1)C(=O)N[C@@H](CCCCNC(=O)c1ccc2c(c1)C1(OC2=O)c2ccc(O)cc2Oc2cc(O)ccc21)C(=O)O [SM5F, AbuRPFK-FAM] (H-[Abu]RPFK(6FAM)-OH; N-terminus and C-terminus assumed)
